{
  "source": "paper PMC5355235",
  "about": "“FLT3 activating mutations display differential sensitivity to multiple tyrosine kinase inhibitors” (Oncotarget, 2017)",
  "key": {"BaF3/ITD cells": {"test_system": "BaF3/ITD cells", "assay": "MTT growth inhibition assay, BaF3 FLT3-ITD cells", "type": "cell-based", "settings": "Mus musculus, no IL-3, 48 h, read-out: Proliferation IC50", "description": "(§1) Figure 1 Growth of AL mutants in the presence of FLT3 TKI The BaF3 AL mutants were grown in the absence of IL-3 and analyzed by treatment in increasing concentrations of FLT3 TKI for 48 hours, after which growth inhibition was assessed using the MTT assay. Means are representative of at least three independent experiments.\n(§2) The cells were grown in the absence of IL3 and analyzed by treatment in increasing concentrations of FLT3 TKI for 48 hours, after which growth inhibition was assessed using the MTT assay. Each experiment was performed at least three times and representative results are shown.\n(§3) Based on Trypan Blue exclusion, 2 × 10^4 viable cells were seeded in quadruplicate in a 96-well microtiter plate in the presence or absence of inhibitor for 48 h. The effect of drug activity on cell viability was measured using the 3-(4,5-Dimethylthiazol-2-yl)-2,5-diphenyltetrazolium bromide (MTT) assay according to the manufacturer's instructions (Roche Applied Science, Indianapolis, IN, USA). Following treatment, cells were incubated for 4 h in MTT followed by dissolution in solubilization buffer overnight. Absorbance was measured at 570 nm on a Bio-Rad plate reader (Hercules, CA, USA). […] Results shown are presented as means and are representative of at least three independent experiments."}, "[1]": {"test_system": "BaF3 FLT3 I836T mutant cells", "assay": "MTT growth inhibition assay, BaF3 FLT3 I836T cells", "type": "cell-based", "settings": "Mus musculus, no IL-3, 48 h, read-out: Proliferation IC50", "description": "as §1, §2, §3"}, "[2]": {"test_system": "BaF3 FLT3 I836S mutant cells", "assay": "MTT growth inhibition assay, BaF3 FLT3 I836S cells", "type": "cell-based", "settings": "Mus musculus, read-out: Proliferation IC50", "description": "as §1, §2, §3"}, "[3]": {"test_system": "BaF3 FLT3 D835Y mutant cells", "assay": "MTT growth inhibition assay, BaF3 FLT3 D835Y cells", "type": "cell-based", "settings": "Mus musculus, no IL-3, 48 h, read-out: Proliferation IC50", "description": "as §1, §2, §3"}, "[4]": {"test_system": "BaF3 FLT3 D835G mutant cells", "assay": "MTT growth inhibition assay, BaF3 FLT3 D835G cells", "type": "cell-based", "settings": "Mus musculus, no IL-3, 48 h, read-out: Proliferation IC50", "description": "as §1, §2, §3"}, "[5]": {"test_system": "BaF3 FLT3 840G+S mutant cells", "assay": "MTT growth inhibition assay, BaF3 FLT3 840G+S cells", "type": "cell-based", "settings": "Mus musculus, no IL-3, 48 h, read-out: Proliferation IC50", "description": "as §1, §2, §3"}, "[6]": {"test_system": "BaF3 FLT3 D835A mutant cells", "assay": "MTT growth inhibition assay, BaF3 FLT3 D835A cells", "type": "cell-based", "settings": "Mus musculus, read-out: Proliferation IC50", "description": "as §1, §2, §3"}, "[7]": {"test_system": "BaF3 FLT3 I836L+D mutant cells", "assay": "MTT growth inhibition assay, BaF3 FLT3 I836L+D cells", "type": "cell-based", "settings": "Mus musculus, no IL-3, 48 h, read-out: Proliferation IC50", "description": "as §1, §2, §3"}, "[8]": {"test_system": "BaF3 FLT3 D835L+K mutant cells", "assay": "MTT growth inhibition assay, BaF3 FLT3 D835L+K cells", "type": "cell-based", "settings": "Mus musculus, no IL-3, 48 h, read-out: Proliferation IC50", "description": "as §1, §2, §3"}, "[9]": {"test_system": "BaF3 FLT3 D593D mutant cells", "assay": "MTT growth inhibition assay, BaF3 FLT3 D593D cells", "type": "cell-based", "settings": "Mus musculus, no IL-3, 48 h, read-out: Proliferation IC50", "description": "as §1, §2, §3"}, "[10]": {"test_system": "BaF3 FLT3 D835N mutant cells", "assay": "MTT growth inhibition assay, BaF3 FLT3 D835N cells", "type": "cell-based", "settings": "Mus musculus, no IL-3, 48 h, read-out: Proliferation IC50", "description": "as §1, §2, §3"}, "FLT3/ITD": {"test_system": "FLT3/ITD", "assay": "FLT3/ITD autophosphorylation and signaling pathways, Western blot", "type": "cell-based", "settings": "FLT3/ITD cells, 1 h, concentration-dependent", "description": "(§4) Activated FLT3 expression was measured by performing immunoprecipitation, SDS-PAGE and Western blotting as previously described. Specifically, 10^7 cells were washed in medium and treated with inhibitor for 1 h followed by stimulation with 25 ng/ml of FLT3 ligand for 15 minutes where indicated. Cells were washed twice with ice-cold PBS and lysed in 300 µl of NP-40 lysis buffer (150 mM NaCl, 20 mM TrisHCl (pH7.4), 10% glycerol, 1% NP-40, 10 mM EDTA, 100 mM NaF) with 2 mM Na3VO4 and protease inhibitors (Complete Tablets, Roche, Mannheim, Germany) at 4°C for 30 m. Cell lysate was harvested by centrifugation at 13,000 × g for 30 m at 4°C. FLT3 S-18 antibody was incubated with 500 µg lysate overnight at 4°C followed by immunoprecipitation with protein A-agarose beads for 2 h. Beads were washed once in Tris buffered saline with 1% Tween-20 (TBST) and twice in TBS. Samples were boiled in sodium dodecyl sulfate (SDS) sample buffer prior to separating in a 8% SDS-polyacrylamide gel (SDS-PAGE). Proteins were transferred to a polyvinyl diflouride (PVDF) membrane (Millipore, Bedford, MA, USA) and detected by 4G10 phosphotyrosine antibody and anti-FLT3 S-18 antibody. FLT3 was visualized using the Odyssey Infra Red Imaging System from Li-Cor (Lincoln, NE, USA) using AlexaFluor 680 goat anti-mouse and AlexaFluor 800 goat anti-rabbit antibodies. Phosphorylation of the FLT3 downstream signaling mediators, STAT5, AKT and MAP kinase was investigated by loading 50 µg of whole cell lysate and probing with the indicated antibodies. The membrane was washed and incubated in goat anti-rabbit secondary antibody conjugated to horseradish peroxidase followed by enhanced chemiluminescence (ECL). The membrane was subsequently stripped in 200 mM glycine buffer, pH 2.5 with 0.1% Tween-20 and reprobed for STAT5, AKT and MAP kinase expression using the respective antibodies."}, "BaF3 FLT3 D835Y cells": {"test_system": "BaF3 FLT3 D835Y cells", "assay": "Engraftment of BaF3 D835Y luciferase cells in BALB/c mice, bioluminescence imaging", "type": "in vivo", "settings": "20 mg/kg twice daily subcutaneous, day 5 to day 9", "description": "On day 5 following transplantation, the level of engraftment was assessed by imaging mice for bioluminescence on an IVIS Spectrum imager. […] This experiment was repeated three times.\nCells were sorted for GFP and CD135 expression on a FACS AriaII cytometer using FACSDiva software. For engraftment, 2 ×10^6 cells were injected via tail vein into BALB/c mice (Jackson Laboratories, Bar Harbor, ME, USA) (day 0). […] [36, 37] […] Mice were imaged by intraperitoneal injection of luciferin (3 mg) and visualizing on an IVIS Spectrum imager (Caliper LifeSciences, Hopkinton, MA, USA) using Living Image software for analysis on day 5 following inoculation to monitor engraftment and on day 9 to assess drug effect. All animal procedures were conducted in accordance with the policy of the Johns Hopkins University School of Medicine Animal Care and Use Committee."}, "all FLT3 AL mutants": {"test_system": "all FLT3 AL mutants", "settings": "read-out: FLT3 autophosphorylation IC50, BaF3 cells, 1 h treatment, Western blot", "description": "as §4, with “Phosphorylation of the FLT3 downstream signaling mediators, STAT5, AKT and MAP kinase was investigated by loading 50 µg of whole cell lysate and probing with the indicated antibodies. The membrane was washed and incubated in goat anti-rabbit secondary antibody conjugated to horseradish peroxidase followed by enhanced chemiluminescence (ECL). The membrane was subsequently stripped in 200 mM glycine buffer, pH 2.5 with 0.1% Tween-20 and reprobed for STAT5, AKT and MAP kinase expression using the respective antibodies.” left out"}, "[11]": {"settings": "BaF3 FLT3 I836S, no IL-3, 48 h, MTT"}, "[12]": {"settings": "BaF3 FLT3 D835A, no IL-3, 48 h, MTT"}},
  "note": "Like-named read-outs stand apart in the source and are kept apart here.",
  "data": [
    {"molecule": "O=C(c1ccc(/C=C/c2n[nH]c3ccccc23)cc1)N1CCNCC1", "note": "[KW2449]", "values": [
      {"measurement": "IC50", "setting": "BaF3/ITD cells", "value": 41, "unit": "nM"},
      {"measurement": "IC50", "setting": "[1]", "value": 31.9, "unit": "nM"},
      {"measurement": "IC50", "setting": "[2]; [11]", "value": "> 200", "unit": "nM"},
      {"measurement": "IC50", "setting": "[3]", "value": "> 200", "unit": "nM"},
      {"measurement": "IC50", "setting": "[4]", "value": 56, "unit": "nM"},
      {"measurement": "IC50", "setting": "[5]", "value": 35, "unit": "nM"},
      {"measurement": "IC50", "setting": "[6]; [12]", "value": 62, "unit": "nM"},
      {"measurement": "IC50", "setting": "[7]", "value": "> 200", "unit": "nM"},
      {"measurement": "IC50", "setting": "[8]", "value": "> 200", "unit": "nM"},
      {"measurement": "IC50", "setting": "[9]", "value": "> 200", "unit": "nM"},
      {"measurement": "IC50", "setting": "[10]", "value": 58.3, "unit": "nM"}
    ]},
    {"molecule": "C[C@]12O[C@H](C[C@]1(O)CO)n1c3ccccc3c3c4c(c5c6ccccc6n2c5c31)CNC4=O", "note": "[Lestaurtinib]", "values": [
      {"measurement": "IC50", "setting": "BaF3/ITD cells", "value": 8.6, "unit": "nM"},
      {"measurement": "IC50", "setting": "[1]", "value": 13.4, "unit": "nM"},
      {"measurement": "IC50", "setting": "[2]; BaF3, 48 h", "value": 15, "unit": "nM"},
      {"measurement": "Inhibition of FLT3 autophosphorylation and phosphorylation of STAT5, AKT and Map kinase", "setting": "FLT3/ITD", "value": "inhibited FLT3 autophosphorylation"},
      {"measurement": "Leukemic burden (bioluminescence) on day 9", "setting": "BaF3 FLT3 D835Y cells", "value": "greatly reduced"},
      {"measurement": "IC50", "setting": "[3]", "value": 9.8, "unit": "nM"},
      {"measurement": "IC50", "setting": "[4]", "value": 6, "unit": "nM"},
      {"measurement": "IC50", "setting": "[5]", "value": 8, "unit": "nM"},
      {"measurement": "IC50", "setting": "[6]; BaF3, 48 h", "value": 5, "unit": "nM"},
      {"measurement": "IC50", "setting": "[7]", "value": 2.1, "unit": "nM"},
      {"measurement": "IC50", "setting": "[8]", "value": 2.1, "unit": "nM"},
      {"measurement": "IC50", "setting": "all FLT3 AL mutants", "value": "≤ 5", "unit": "nM"},
      {"measurement": "IC50", "setting": "[9]", "value": 8, "unit": "nM"},
      {"measurement": "IC50", "setting": "[10]", "value": 7.6, "unit": "nM"}
    ]},
    {"molecule": "Cc1ccc(F)c(NC(=O)Nc2ccc(-c3cccc4[nH]nc(N)c34)cc2)c1", "note": "[Linifanib]", "values": [
      {"measurement": "IC50", "setting": "BaF3/ITD cells", "value": 2.4, "unit": "nM"},
      {"measurement": "IC50", "setting": "[1]", "value": 5.3, "unit": "nM"},
      {"measurement": "IC50", "setting": "[2]; [11]", "value": "> 200", "unit": "nM"},
      {"measurement": "IC50", "setting": "[3]", "value": "> 100", "unit": "nM"},
      {"measurement": "IC50", "setting": "[4]", "value": 8.6, "unit": "nM"},
      {"measurement": "IC50", "setting": "[5]", "value": 2.1, "unit": "nM"},
      {"measurement": "IC50", "setting": "[6]; [12]", "value": "> 200", "unit": "nM"},
      {"measurement": "IC50", "setting": "[7]", "value": "> 200", "unit": "nM"},
      {"measurement": "IC50", "setting": "[8]", "value": "> 200", "unit": "nM"},
      {"measurement": "IC50", "setting": "[9]", "value": "> 200", "unit": "nM"},
      {"measurement": "IC50", "setting": "[10]", "value": 10.3, "unit": "nM"}
    ]},
    {"molecule": "CO[C@@H]1[C@H](N(C)C(=O)c2ccccc2)C[C@H]2O[C@]1(C)n1c3ccccc3c3c4c(c5c6ccccc6n2c5c31)C(=O)NC4", "note": "[Midostaurin]", "values": [
      {"measurement": "IC50", "setting": "[5]", "value": 12, "unit": "nM"}
    ]}
  ]
}
